Where a name gives a salt, the structure may show the parent alone.
Key:
[1] = target: T1, α4β1 integrin (Jurkat T-cell adhesion to IL-1 stimulated endothelial cell monolayers) (Homo sapiens, UniProt P05556+P13612); assay: Jurkat-endothelial cell adhesion assay (Jurkat EC); format: cell-based; details: Jurkat cells on IL-1 stimulated human umbilical vein endothelial cells; read-out: JK/EC (Jurkat EC Assay IC50 value range)
T1 construct: a T-cell line, Jurkat, known to express the α4β1 integrin; host or cells: Jurkat T-cell line
T1 sequence (P13612 34-1032): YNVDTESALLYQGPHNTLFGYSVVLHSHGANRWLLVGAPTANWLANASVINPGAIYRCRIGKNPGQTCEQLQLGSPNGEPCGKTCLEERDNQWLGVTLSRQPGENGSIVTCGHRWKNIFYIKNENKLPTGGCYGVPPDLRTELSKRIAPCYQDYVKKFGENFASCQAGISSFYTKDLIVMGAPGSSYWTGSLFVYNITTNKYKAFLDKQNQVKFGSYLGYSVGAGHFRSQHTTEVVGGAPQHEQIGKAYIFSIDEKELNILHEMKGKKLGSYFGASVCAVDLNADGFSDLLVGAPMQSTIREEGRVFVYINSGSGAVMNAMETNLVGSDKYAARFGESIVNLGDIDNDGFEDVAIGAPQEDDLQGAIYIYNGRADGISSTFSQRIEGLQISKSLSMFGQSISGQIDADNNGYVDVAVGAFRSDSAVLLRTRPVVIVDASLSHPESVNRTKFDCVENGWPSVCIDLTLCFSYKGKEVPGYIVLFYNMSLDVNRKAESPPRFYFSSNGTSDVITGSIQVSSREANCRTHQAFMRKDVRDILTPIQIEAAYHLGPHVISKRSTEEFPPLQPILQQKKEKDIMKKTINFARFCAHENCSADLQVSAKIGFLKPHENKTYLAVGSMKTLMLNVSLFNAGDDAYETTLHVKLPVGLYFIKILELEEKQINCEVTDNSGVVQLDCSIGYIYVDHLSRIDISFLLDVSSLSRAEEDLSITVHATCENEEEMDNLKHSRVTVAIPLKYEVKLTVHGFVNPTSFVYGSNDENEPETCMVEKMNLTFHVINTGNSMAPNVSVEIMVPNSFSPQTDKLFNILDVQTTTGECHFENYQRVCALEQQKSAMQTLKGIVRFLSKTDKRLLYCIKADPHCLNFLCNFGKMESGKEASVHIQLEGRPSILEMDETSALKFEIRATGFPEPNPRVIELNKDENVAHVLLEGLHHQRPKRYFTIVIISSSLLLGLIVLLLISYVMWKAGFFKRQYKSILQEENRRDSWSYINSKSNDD
T1 sequence (P05556 21-798): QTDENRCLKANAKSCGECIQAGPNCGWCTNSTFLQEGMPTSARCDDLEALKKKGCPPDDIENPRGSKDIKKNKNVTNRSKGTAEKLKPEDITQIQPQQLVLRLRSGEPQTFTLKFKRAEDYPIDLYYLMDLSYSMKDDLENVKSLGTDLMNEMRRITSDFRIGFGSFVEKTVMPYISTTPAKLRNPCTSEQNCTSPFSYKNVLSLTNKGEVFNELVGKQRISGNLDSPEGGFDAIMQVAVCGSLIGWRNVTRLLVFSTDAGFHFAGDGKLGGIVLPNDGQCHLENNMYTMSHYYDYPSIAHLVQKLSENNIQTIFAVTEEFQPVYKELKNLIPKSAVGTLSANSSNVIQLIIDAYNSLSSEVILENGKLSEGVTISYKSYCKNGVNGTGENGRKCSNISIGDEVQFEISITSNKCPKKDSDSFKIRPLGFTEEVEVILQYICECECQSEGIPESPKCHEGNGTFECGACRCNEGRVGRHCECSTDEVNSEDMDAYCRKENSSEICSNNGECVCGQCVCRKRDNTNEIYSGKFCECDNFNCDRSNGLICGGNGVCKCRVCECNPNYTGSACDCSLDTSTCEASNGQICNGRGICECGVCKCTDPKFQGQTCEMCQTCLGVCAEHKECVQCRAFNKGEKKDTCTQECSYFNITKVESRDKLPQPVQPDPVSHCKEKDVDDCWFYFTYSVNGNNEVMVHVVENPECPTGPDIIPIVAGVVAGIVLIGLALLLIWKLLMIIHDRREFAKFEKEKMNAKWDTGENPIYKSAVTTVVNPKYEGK
In short: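 BCECF-AM-labelled Jurkat cells were mixed with compound, generally 100, 20, 5 and 1.25 μM, and added to HUVEC monolayers (passage ≤6) pre-stimulated 4 hr at 37° C with 0.1 ng/ml IL-1. After 5 min on ice and 20 min at 37° C, washed wells were read by fluorescence as % adhesion relative to no compound.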

[2] = target: T2, α4β1 integrin (Jurkat cell adhesion to immobilized CS-1 derived peptide CLHPGEILDVPST) (Homo sapiens, UniProt P05556+P13612); assay: Jurkat-CS-1 assay; format: cell-based; details: Jurkat cells on CS-1 peptide coated plates; read-out: JK/CS-1 (Jurkat CS-1 Assay IC50 value range)
T2 construct: 100 μl of Jurkat cells (2.5×10^6 cells/ml) in DMEM plus BSA; host or cells: Jurkat T-cell line
T2 sequence (P13612 34-1032): as the sequence (P13612 34-1032) above
T2 sequence (P05556 21-798): as the sequence (P05556 21-798) above
In short: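 CS-1 peptide was SPDP-crosslinked onto HSA-coated plates and blocked with BSA. Jurkat cells (2.5×10^6 cells/ml) in DMEM/BSA were mixed with compound, generally at 100, 20, 5 and 1.25 μM, and allowed to adhere for 1 hr at 37° C. Bound cells were fixed, stained with toluidine blue and quantified by OD590.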

Row | SMILES | IC50 [1] [nM] | IC50 [2] [nM]
1 | O=C(Nc1ccc(C[C@H](NC(=O)[C@@H]2CCCCN2C(=O)C2CCCC(C(=O)O)C2)C(=O)O)cc1)c1c(Cl)cccc1Cl (stereo partly shown) [Example 178] | ≥ 1000 | ≤ 50
2 | O=C(O)c1ccccc1C(=O)N1CCCC[C@H]1C(=O)N[C@@H](Cc1ccc(NC(=O)c2c(Cl)cccc2Cl)cc1)C(=O)O [Example 181] | ≥ 1000 | 50 to 750
3 | O=C(O)c1ccc(C(=O)N2CCCC[C@H]2C(=O)N[C@@H](Cc2ccc(NC(=O)c3c(Cl)cccc3Cl)cc2)C(=O)O)nc1 [Example 187] | ≥ 1000 | 50 to 750
4 | O=C(Nc1ccc(C[C@H](NC(=O)[C@@H]2CCCCN2C(=O)c2cc(O)c3ccccc3n2)C(=O)O)cc1)c1c(Cl)cccc1Cl [Example 188] | ≥ 1000 | 50 to 750
5 | O=C(O)c1cc(C(=O)N2CCCC[C@H]2C(=O)N[C@@H](Cc2ccc(NC(=O)c3c(Cl)cccc3Cl)cc2)C(=O)O)n[nH]1 [Example 189] | ≥ 1000 | 50 to 750
6 | O=C(Nc1ccc(C[C@H](NC(=O)[C@@H]2CCCCN2C(=O)c2ccc([N+](=O)[O-])o2)C(=O)O)cc1)c1c(Cl)cccc1Cl [Example 191] | ≥ 1000 | 50 to 750
7 | O=C(O)CC1(CC(=O)N2CCCC(C(=O)N[C@@H](Cc3ccc(NC(=O)c4c(Cl)cccc4Cl)cc3)C(=O)O)C2)CCCC1 (stereo partly shown) [Example 195] | ≥ 1000 | 50 to 750
8 | CC(C)(CC(=O)O)CC(=O)N1CCCC(C(=O)N[C@@H](Cc2ccc(NC(=O)c3c(Cl)cccc3Cl)cc2)C(=O)O)C1 (stereo partly shown) [Example 196] | ≥ 1000 | 50 to 750
9 | O=C(O)/C=C\C(=O)N1CCCC(C(=O)N[C@@H](Cc2ccc(NC(=O)c3c(Cl)cccc3Cl)cc2)C(=O)O)C1 (stereo partly shown) [Example 197] | ≥ 1000 | ≥ 750
10 | O=C(Nc1ccc(C[C@H](NC(=O)C2CCCN(C(=O)C3CCCC(C(=O)O)C3)C2)C(=O)O)cc1)c1c(Cl)cccc1Cl (stereo partly shown) [Example 200] | ≥ 1000 | 50 to 750
11 | CC(=O)CCC(=O)N1CCCC(C(=O)N[C@@H](Cc2ccc(NC(=O)c3c(Cl)cccc3Cl)cc2)C(=O)O)C1 (stereo partly shown) [Example 201] | ≥ 1000 | 50 to 750
12 | COc1ccc(C(=O)N2CCCC(C(=O)N[C@@H](Cc3ccc(NC(=O)c4c(Cl)cccc4Cl)cc3)C(=O)O)C2)cc1OC (stereo partly shown) [Example 203] | ≥ 1000 | 50 to 750
13 | O=C(O)c1cncc(C(=O)N2CCCC(C(=O)N[C@@H](Cc3ccc(NC(=O)c4c(Cl)cccc4Cl)cc3)C(=O)O)C2)c1 (stereo partly shown) [Example 207] | ≥ 1000 | 50 to 750
14 | CC(=O)CCC(=O)N1CCC(C(=O)N[C@@H](Cc2ccc(NC(=O)c3c(Cl)cccc3Cl)cc2)C(=O)O)CC1 [Example 216] | ≥ 1000 | 50 to 750
15 | O=C(O)c1cccc(C(=O)N2CCC(C(=O)N[C@@H](Cc3ccc(NC(=O)c4c(Cl)cccc4Cl)cc3)C(=O)O)CC2)c1 [Example 220] | ≥ 1000 | 50 to 750
16 | O=C(O)c1cncc(C(=O)N2CCC(C(=O)N[C@@H](Cc3ccc(NC(=O)c4c(Cl)cccc4Cl)cc3)C(=O)O)CC2)c1 [Example 222] | ≥ 1000 | 50 to 750

The remaining lines, values ahead:

Row | IC50 [1] [nM] | IC50 [2] [nM] | SMILES
17 | 250 to 1000 | 50 to 750 | C[C@@H](c1ccccc1)N1[C@H](C(=O)O)C[C@H]1C(=O)N[C@@H](Cc1ccc(NC(=O)c2c(Cl)cccc2Cl)cc1)C(=O)O [Example 129, [2S-[1(R*),2α,4β(R*)]]-4-[[[1-Carboxy-2-[4-[(2,6-dichlorobenzoyl)amino]phenyl]ethyl]-amino]carbonyl]-1-(1-phenylethyl)-2-azetidinecarboxylic Acid Dilithium Salt]
18 | 250 to 1000 | 50 to 750 | C[C@H](c1ccccc1)N1[C@H](C(=O)O)C[C@H]1C(=O)N[C@@H](Cc1ccc(NC(=O)c2c(Cl)cccc2Cl)cc1)C(=O)O [Example 137, [2S-[1(S*),2α,4β(R*)]]-4-[[[1-Carboxy-2-[4-[(2,6-dichlorobenzoyl)amino]phenyl]ethyl]-amino]carbonyl]-1-(1-phenylethyl)-2-azetidinecarboxylic Acid]
19 | ≥ 1000 | 50 to 750 | CCOC(=O)N1[C@@H](C(=O)O)C[C@@H]1C(=O)N[C@@H](Cc1ccc(NC(=O)c2c(Cl)cccc2Cl)cc1)C(=O)O [Example 141, [2R-(2α,4β(S*)]-4-[[[1-Carboxy-2-[4-[(2,6-dichlorobenzoyl)amino]phenyl]ethyl]-amino]-carbonyl]-1,2-azetidinedicarboxylic Acid 1-Ethyl Ester]
20 | ≥ 1000 | 50 to 750 | CC(C)(C)OC(=O)N1CC[C@H]1C(=O)N[C@@H](Cc1ccc(NC(=O)c2c(Cl)cccc2Cl)cc1)C(=O)O [Example 143, [2S-(R*,R*)]-2-[[[1-Carboxy-2-[4-[(2,6-dichlorobenzoyl)amino]phenyl]ethyl]amino]-carbonyl]-1-azetidinecarboxylic Acid 1-(1,1-Dimethylethyl)ester]
21 | ≥ 1000 | 50 to 750 | O=C(Nc1ccc(C[C@H](NC(=O)[C@@H]2CCN2)C(=O)O)cc1)c1c(Cl)cccc1Cl [Example 144, N-[[(2S)-2-Azetidinyl]carbonyl]-4-[(2,6-dichlorobenzoyl)amino]-L-phenylalanine Trifluoroacetic acid Salt]
22 | ≥ 1000 | ≥ 750 | CC(C)(C)OC(=O)N1CC(C(=O)N[C@@H](Cc2ccc(NC(=O)c3c(Cl)cccc3Cl)cc2)C(=O)O)C1 [Example 146]
23 | ≥ 1000 | ≥ 750 | O=C(Nc1ccc(C[C@H](NC(=O)C2CNC2)C(=O)O)cc1)c1c(Cl)cccc1Cl [Example 147, N-[[3-Azetidinyl]carbonyl]-4-[(2,6-dichlorobenzoyl)amino]-L-phenylalanine, Trifluoroacetic Acid Salt]
24 | 250 to 1000 | ≤ 50 | CCOC(=O)N1CSC[C@@H]1C(=O)N[C@@H](Cc1ccc(NC(=O)c2c(Cl)cccc2Cl)cc1)C(=O)OCc1ccncc1 [Example 154, [S-(R*,R*) 4-[[[1-[4-[(2,6-Dichlorobenzoyl)amino]phenyl]methyl]-2-[(4-pyridinyl)methoxy]-2-oxoethyl]amino]carbonyl]-3-thiazolidinecarboxylic Acid 3-Ethyl Ester]
25 | 250 to 1000 | 50 to 750 | O=C(O)CCC(=O)N1CCCCC1C(=O)N[C@@H](Cc1ccc(NC(=O)c2c(Cl)cccc2Cl)cc1)C(=O)O (stereo partly shown) [Example 167]
26 | ≥ 1000 | 50 to 750 | CN1C(=O)CC(C(=O)N[C@@H](Cc2ccc(NC(=O)c3c(Cl)cccc3Cl)cc2)C(=O)O)C1c1ccc2c(c1)OCO2 (stereo partly drawn) [Example 171, N-[[2-(1,3-Benzodioxol-5-yl)-1-methyl-5-oxo-3-pyrrolidinyl]carbonyl]-4-[(2,6-dichlorobenzoyl)amino]-L-phenylalanine]
27 | ≤ 250 | ≤ 50 | O=C(O)c1cncc(C(=O)N2CCCC[C@H]2C(=O)N[C@@H](Cc2ccc(NC(=O)c3c(Cl)cccc3Cl)cc2)C(=O)O)c1 [Example 172, 5-[[(2S)-2-[[[(1S)-1-Carboxy-2-[4-[(2,6-dichlorobenzoyl)amino]phenyl]ethyl]amino]carbonyl]-1-piperidinyl]carbonyl]-3-pyridinecarboxylic Acid]
28 | ≤ 250 | 50 to 750 | COCCC(=O)N1CCCC(C(=O)N[C@@H](Cc2ccc(NC(=O)c3c(Cl)cccc3Cl)cc2)C(=O)O)C1 (stereo partly drawn) [Example 173, 4-[(2,6-Dichlorobenzoyl)amino]-N-[[1-(3-methoxy-1-oxopropyl)-3-piperidinyl]carbonyl]-L-phenylalanine]
29 | ≥ 1000 | 50 to 750 | O=C(O)/C=C/C(=O)N1CCCC[C@H]1C(=O)N[C@@H](Cc1ccc(NC(=O)c2c(Cl)cccc2Cl)cc1)C(=O)O [Example 176]
30 | ≥ 1000 | ≤ 50 | COCCC(=O)N1CCCC[C@H]1C(=O)N[C@@H](Cc1ccc(NC(=O)c2c(Cl)cccc2Cl)cc1)C(=O)O [Example 177]
31 | 250 to 1000 | 50 to 750 | O=C(O)c1cccc(C(=O)N2CCCC[C@H]2C(=O)N[C@@H](Cc2ccc(NC(=O)c3c(Cl)cccc3Cl)cc2)C(=O)O)c1 [Example 182]
32 | ≤ 250 | ≤ 50 | O=C(Nc1ccc(C[C@H](NC(=O)[C@@H]2CCCCN2C(=O)c2cccnc2)C(=O)O)cc1)c1c(Cl)cccc1Cl [Example 185]
33 | ≤ 250 | ≤ 50 | O=C(O)c1cccc(C(=O)N2CCCC[C@H]2C(=O)N[C@@H](Cc2ccc(NC(=O)c3c(Cl)cccc3Cl)cc2)C(=O)O)n1 [Example 186]
34 | 250 to 1000 | 50 to 750 | O=C(Nc1ccc(C[C@H](NC(=O)[C@@H]2CCCCN2C(=O)C2NC(C(=O)O)CS2)C(=O)O)cc1)c1c(Cl)cccc1Cl (stereo partly shown) [Example 190]
35 | ≤ 250 | ≤ 50 | O=C(Nc1ccc(C[C@H](NC(=O)[C@@H]2CCCCN2C(=O)C2CCCO2)C(=O)O)cc1)c1c(Cl)cccc1Cl (stereo partly shown) [Example 192]
36 | ≤ 250 | 50 to 750 | O=C(Nc1ccc(C[C@H](NC(=O)[C@@H]2CCCCN2C(=O)C2CCOC2)C(=O)O)cc1)c1c(Cl)cccc1Cl (stereo partly shown) [Example 193]
37 | 250 to 1000 | 50 to 750 | O=C(O)c1ccccc1C(=O)N1CCCC(C(=O)N[C@@H](Cc2ccc(NC(=O)c3c(Cl)cccc3Cl)cc2)C(=O)O)C1 (stereo partly shown) [Example 204]
38 | 250 to 1000 | 50 to 750 | O=C(O)c1ccc2cc(C(=O)N3CCCC(C(=O)N[C@@H](Cc4ccc(NC(=O)c5c(Cl)cccc5Cl)cc4)C(=O)O)C3)ccc2c1 (stereo partly shown) [Example 206]
